Reference: patent US8658672B2, “HIF-1α activating agent” (University of Seoul Foundation of Industrial and Academic …, priority 2006, dated 2014)

Key:
HIF-1α [1] = experiment: Effects of CQ and TPEN on HIF-1α stabilization in HepG2 cells (Western blotting); type: cell-based, human; settings: 6 hours, TPEN 5 μM
Experimental: Human HepG2 hepatoma cells (ATCC HB-8065) were cultured under normoxic condition and under hypoxic condition, respectively. HepG2 cells were cultured in MEM (Invitrogen, USA) containing non-essential amino acids and supplemented with 10% FBS (fetal bovine serum: Biowhittaker, USA). The cells were made hypoxic by incubation in anaerobic incubator (Model 1029, Form a Scientific. Inc) at 37° C. with 5% CO2, 10% H2 and 85% N2. The cells were treated with drugs one hour before incubation under hypoxic condition. To separate RNAs, the cells were incubated for 16 hours under hypoxic condition and to separate proteins the cells were cultured for 6 hours under hypoxic condition. […] HIF-1α expression was investigated by Western blotting. Samples from each group proceeded to 8% SDS-PAGE for electrophoresis and were then transferred onto nitrocellulose membrane (Schleicher & Schuell Bioscience, USA). Anti-human HIF-1α antibody (BD Pharmingen, USA) (1:800) was used as a primary antibody and mouse-Ig conjugated horseradish peroxidase (1:3,000) was used as a secondary antibody. Anti-β tubulin antibody (BD, Pharmingen, USA) was used as a control.

HIF-1α [2] = experiment: Effects of CQ and TPEN on HIF-1α stabilization in SH-SY5Y cells (Western blotting); type: cell-based, human
Experimental: Human SH-SY5Y neuroblastoma cells (ATCC CRL-2266) were cultured under normoxic condition and hypoxic condition, respectively. SH-SY5Y cells were cultured in MEM (Invitrogen, USA) containing non-essential amino acids and supplemented with 10% FBS (fetal bovine serum: Biowhittaker, USA). The cells were made hypoxic by incubation in anaerobic incubator (Model 1029, Form a Scientific Inc) at 37° C. with 5% CO2, 10% H2 and 85% N2. The cells were treated with drugs one hour before hypoxic treatment. To separate RNAs, the cells were incubated for 16 hours under hypoxic condition and to separate proteins the cells were cultured for 6 hours under hypoxic condition. […] HIF-1α expression was investigated by Western blotting. Samples from each group proceeded to 8% SDS-PAGE for electrophoresis and were then transferred onto nitrocellulose membrane (Sigma, USA). Anti-human HIF-1α antibody (BD, Pharmingen, USA) (1:800) was used as a primary antibody and mouse-Ig conjugated horseradish:peroxidase (1:3,000) was used as a secondary antibody. Anti-β tubulin antibody (BD, Pharmingen, USA) was used as a control.

VEGF = experiment: Effects of CQ and TPEN on the expression of VEGF, a HIF-1α target gene (RT-PCR); type: cell-based, human; settings: TPEN 5 μM
Source text: ID. […] ID. NO: 2 (5′-[…]-3′). […] ID. […] ID. NO: 4 (5′-[…]-3′).

[3] = tested on: HRE (hypoxia-response element); experiment: HRE dependent gene expression in HepG2 hepatoma cells (luciferase reporter gene assay); type: cell-based, human; settings: p(HRE)4-luc, TPEN 5, 10 μM, CQ 10, 50 μM, 16 hours
Experimental: Human HepG2 hepatoma cells were grown to the density of 5×10^4 and then transfected with 100 ng of HRE-driven reporter plasmid, p(HRE)4-luc together with plasmid pCHO110 which encodes β-galactosidase. The transfected human HepG2 hepatoma cells were cultured under normoxic condition and hypoxic condition and then treated with TPEN (5, 10 μM) and CQ (10, 50 μM) for 16 hours each. 48 hours after the transfection, luciferase activities were analyzed using the reporter gene assay system (Promega, USA) and normalized by β-galactosidase activities.

HIF-1α and CBP [4] = experiment: Co-immunoprecipitation of HIF-1α with CBP in HepG2 cells; type: cell-based, human; settings: normoxic, CQ 100 μM, MG132 5 μM 6 hours
Experimental: Total cell extract was prepared by the method of Jaakkola, et al (Jaakkola et al., Science 292:468-472, 2001). For immunoprecipitation, 200 μg of samples of whole cell lysates were reacted with 1 μg of anti-mouse IgG (Santa Cruz Biotechnology, USA) and 10 μl of 0.5% ImmunoPure immobilized protein A/G gel (Pierce, USA) for 30 minutes at 4° C. After removing protein A/G gel, the cleared extracts were mixed with 1 μg of anti-CBP antibody (Santa Cruz Biotechnology, USA). After addition of 15 μl of 0.5% ImmunoPure immobilized protein A/G gel, they were left at 4° C. for 16 hours. The immunoprecipitates were pelleted, washed four times with PBS and resuspended in SDS sample buffer. Samples were then boiled for 5 minutes and run on 8% SDS-polyacrylamide gels, and the proteins were transferred to nitrocellulose membranes by semi-dry transfer (Trans-Blot SD, Bio-Red, Hercules, USA). Co-immunoprecipitated proteins were reacted with anti-human HIF-1α antibody (BD, Pharmingen, USA) and/or anti-CBP antibody and visualized by enhanced chemiluminescence, according to the manufacturer's instruction (Amersham, USA), with anti-mouse or anti-rabbit Ig conjugated with horseradish peroxidase (HRP) as a secondary antibody.

GAL4-HIF-1α = experiment: HIF-1α transactivation, Gal4-driven reporter gene assay in HepG2 cells; type: cell-based, human; settings: TPEN 5 μM, 16 hours
Experimental: Human HepG2 hepatoma cells were cultured at the concentration of 5×10^4, which were transfected with 100 ng of Gal-4-driven reporter plasmid encoding the firefly luciferase gene under the control of the Gal4 binding site together with pGal4/HIF-1α plasmid which expresses HIF-1α linked to the DNA binding domain of the yeast Gal4 protein (amino acids 1-147). The transfected human HepG2 hepatoma cells were incubated in both normoxic and hypoxic conditions and then treated with CQ (10, 50 μM) for 16 hours in normoxic condition. 48 hours after the transfection, luciferase activities were analyzed using the reporter gene assay system (Promega, USA) and normalized by β-galactosidase activities.

HIF-1α and CBP [5] = molecular target: T1, HIF-1α and CBP (UniProt P45481+Q16665); experiment: In vitro interaction between HIF-1α and CBP; type: binding, human; settings: [35S]-labeled HIF-1α, bead-bound GST-CBP N-domain, with or without ZnCl2 20 μM
T1 construct: GST-CBP N-domain (amino acids 1-450); made in house
T1 sequence (P45481 1-450 limits assumed, one chain of several): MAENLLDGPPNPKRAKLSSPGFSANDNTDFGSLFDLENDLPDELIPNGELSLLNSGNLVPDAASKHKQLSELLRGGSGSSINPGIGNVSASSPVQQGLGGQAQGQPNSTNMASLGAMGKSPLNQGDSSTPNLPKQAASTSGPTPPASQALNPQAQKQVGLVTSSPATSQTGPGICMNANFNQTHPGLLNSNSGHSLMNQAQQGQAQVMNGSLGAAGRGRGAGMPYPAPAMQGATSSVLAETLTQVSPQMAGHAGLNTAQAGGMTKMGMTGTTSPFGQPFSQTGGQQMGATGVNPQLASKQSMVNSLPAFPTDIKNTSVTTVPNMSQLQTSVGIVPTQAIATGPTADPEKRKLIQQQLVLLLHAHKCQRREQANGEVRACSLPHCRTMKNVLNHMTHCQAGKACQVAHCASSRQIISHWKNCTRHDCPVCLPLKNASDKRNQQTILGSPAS
Experimental: Glutathione-uniflow resin bound protein was washed four times with 1 ml of 0.1% Nonidet P-40 containing binding buffer, eluted by heating in SDS sample buffer, and fractionated by SDS-PAGE (Dann et al., Proc Natl Acad Sci USA 99:15351-15356, 2002).

[6] = cited from earlier work
FIH-1 = FIH-1 (Homo sapiens, UniProt Q9NWT6); experiment: In vitro FIH-1 activity (capture of radio-labeled HIF-1α by GST-CBP); type: biochemical; parameters: histidine tag; made in house; host or cells: E. coli; settings: CQ 10 μM and 50 μM; interaction between HIF-1α and CBP as readout
Chain of FIH-1 (Q9NWT6 whole entry, the tested form may be a part): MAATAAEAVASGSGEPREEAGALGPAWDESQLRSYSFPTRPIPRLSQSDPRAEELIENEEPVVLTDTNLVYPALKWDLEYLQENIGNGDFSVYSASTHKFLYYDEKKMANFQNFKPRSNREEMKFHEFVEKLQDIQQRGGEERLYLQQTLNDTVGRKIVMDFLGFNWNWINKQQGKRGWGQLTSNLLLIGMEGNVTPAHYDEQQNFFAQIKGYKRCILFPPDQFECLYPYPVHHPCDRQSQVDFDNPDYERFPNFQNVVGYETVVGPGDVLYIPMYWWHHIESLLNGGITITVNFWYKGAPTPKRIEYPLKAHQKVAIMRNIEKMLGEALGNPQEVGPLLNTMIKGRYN
Experimental: The human FIH-1 gene (AF395830) was cloned into pET28a vector (Novagen, USA) and FIH-1 was overexpressed in E. coli as a histidine-tagged fusion protein and purified by Ni-affinity chromatography. The fusion protein was purified by gel-filtration chromatography (Hi-Load Superdex 200) and concentrated by ultrafiltration (Choi et al., Mol Pharmacol 68:1803-1809, 2005).
The resin-bound GST-CBP N-domain (amino acids 1-450) (Kamei et al., Cell 85:403-414, 1996) was then added to 1 μg of each mixture in 500 μl of binding buffer (200 mM Tris-HCl (pH 8.0), 150 mM NaCl, 20 μM ZnCl2, 0.5 mM DTT) and incubation continued for one hour at 4° C. Glutathione-uniflow resin bound protein was washed four times with 1 ml of 0.1% Nondiet P-40 containing binding buffer, and visualized by SDS-PAGE by eluting using SDS sample buffer (Dann et al., Proc Natl Acad Sci USA 99:15351-15356, 2002). The present inventors substituted the asparagine-803 residue of HIF-1α with alanine to generate HIF-1α mutant [HIF-1α-C(N803A)], followed by investigation on FIH-1 activity by the same manner as described above.
Radio-labeled HIF-1α was reacted with the purified recombinant FIH-1, in the presence or absence of CQ or TPEN. FIH-1 was expected to […] the asparagine-803 residue of HIF-1α and thus inhibit the interaction with CBP binding to HIF-1α transactivation domain (Mahon, P. C. et al., Genes Dev. 15, 2675-2686, 2001; Dannm C. E. R., et al., Proc. Natl. Acad. Sci. USA 99, 15351-15356, 2002; Lando, D., et al., Science 295, 858-861, 2002; Freedman, S. J. et al., Proc. Natl. Acad. Sci. USA 99, 5367-5372, 2002).

c1ccc(CN(CCN(Cc2ccccn2)Cc2ccccn2)Cc2ccccn2)nc1 [TPEN, tetrakis-(2-pyridylmethyl)ethanediamine]
HIF-1α accumulation (HIF-1α [1]; hypoxic condition, CQ 10, 100 μM, compared with a control): induced HIF-1α accumulation
level of HIF-1α protein (HIF-1α [1]; normoxic condition, CQ 10, 100, 500 μM): increased the level of HIF-1α protein
level of HIF-1α protein (HIF-1α [2]; normoxic, 6 hours, TPEN 5 μM, CQ 10, 100 μM): increased the level of HIF-1α protein
HIF-1α accumulation (HIF-1α [2]; oxygen condition not printed in the sentence (control also accumulated)): induced HIF-1α accumulation
VEGF expression (VEGF; HepG2 cells, normoxic, CQ 10, 100 μM): differed in their effects on VEGF expression
VEGF expression (VEGF; SH-SY5Y cells, normoxic condition, CQ 10, 100 μM): reduced VEGF expression
VEGF expression (VEGF; hypoxic condition, 16 hours, CQ 100 μM, SH-SY5Y and HepG2 cells): none of the control, TPEN and CQ increased VEGF expression
HIF-1α dependent hypoxia-response element (HRE) activity [3]: but not TPEN induced HIF-1α dependent hypoxia-response element (HRE) activity
interaction of HIF-1α with CBP in cells (HIF-1α and CBP [4]): inhibited the interaction between HIF-1α and CBP
transactivation activity of HIF-1α (GAL4-HIF-1α; hypoxic condition): increased HIF-1α activity
transactivation activity of HIF-1α (GAL4-HIF-1α; normoxic condition, CQ 10, 50 μM): not in normoxic condition
direct effect on the interaction between CBP and HIF-1α (HIF-1α and CBP [5]): neither CQ nor TPEN directly affected the interaction between CBP and HIF-1α
pKa value, Ca2+ ([6]; Ca^2+): 3
pKa value, Fe3+ ([6]; Fe^3+): 14.4
pKa value, Zn2+ ([6]; Zn^2+): 15.4
FIH-1 activity (FIH-1): did not reduce FIH-1 activity
